From paper PMC12340957, “Interactions between Lipopolysaccharide and Peptide Bacteriocin BacSp222 Influence Their Biological Activities” (ACS Infectious Diseases, 2025)
Ends that are not written are not given here. * marks the point of attachment. For = O=C*

Legend:
[1] = Dynamic light scattering, hydrodynamic radius; assay type: physicochemical; conditions: BacSp222 alone at 5, 50, 500 μg/mL, DLS, PBS, 37 °C
Method: For dynamic light scattering experiments, (1) the solution of PBS without Ca^2+ and Mg^2+ or PBS without Ca^2+ and Mg^2+ with (2) 50 μg/mL LPS O55:B5 (IEC), (3) 50 μg/mL LPS O111:B4 (IEC), (4) BacSp222 at concentration 5, 50, and 500 μg/mL, or (5) 50 μg/mL LPS O55/B5 (IEC) + BacSp222 at concentration 5, 50, and 500 μg/mL were incubated for 15 min at 37 °C. Then, the hydrodynamic radius of the LPS and BacSp222 molecules, as well as LPS-BacSp222 complexes, was determined by dynamic light scattering (DLS) on the Prometheus Panta apparatus (NanoTemper, Munich, Germany). Prometheus Standard Capillaries (NanoTemper, Munich, Germany) were used in the experiments, and the measurements were taken at 37 °C. The results were processed by the instrument software (Prometheus Panta Software).

[2] = system: ATCC 25923, ATCC 29663, ATCC 6633, and ATCC 4698; assay: Residual bactericidal activity, radial diffusion assay; assay type: cell-based; conditions: 10 or 50 μM BacSp222, 16 h, n = 3
Method: The residual bactericidal activity of BacSp222 after preincubation with different LPS serotypes and at different mass proportions was determined using radial diffusion assay toward the following bacteria: ATCC 25923, ATCC 29663, ATCC 6633, and ATCC 4698. BacSp222 at final concentrations of 10 μM (for and ) or 50 μM (for and ) was preincubated in PBS without Ca^2+ and Mg^2+ for 15 min at 37 °C with LPS O55:B5 (IEC) or O111:B4 (PE and IEC) at proportions equivalent to 1:1 or 1:17 mass ratios (BacSp222:LPS). After preincubation, 5 μL aliquots of the solutions were dispensed as drops at different sites of soft Mueller–Hinton Broth II (MHBII, Merck, Darmstadt, Germany) plates containing 0.75% (w/v) agarose and a suspension of the tested bacteria strains. After liquid preparations were entered into the solid medium, the plates were incubated at 37 °C for 16 h, and the antibacterial activity of the studied samples was determined as the diameter of the bacterial growth inhibition zone. In each experiment, the appropriate controls were applied on the plate, and they comprised adequate amounts of BacSp222 and LPS not incubated together.

[3] = system: hemolymph phenoloxidase; assay: Hemolymph phenoloxidase (PO) activation in larvae; assay type: in vivo, greater wax moth; conditions: for PO activity after BacSp222 alone: 5 μL injection
Method: The experiments were based on a previously published protocol. The greater wax moth was reared in the dark on honeybee nest debris at 28 °C and 70% humidity. Last instar larvae were used for the experiments. To test the activation of the phenoloxidase (PO) system by LPS, larvae were divided into groups of 10 insects. One group was injected with PBS buffer without Ca^2+ and Mg^2+, the other one with 1 μg of LPS O55:B5 (IEC) diluted in PBS, and the next one with the mixture of 1 μg of LPS and BacSp222 at concentrations 3, 6, or 30 μM. The last group was treated with the bacteriocin alone at the same concentrations. Before injection, all prepared solutions were preincubated for 30 min at 30 °C for possible complex formation, while the puncture surface of each larva was disinfected with 70% ethanol. Injection was done in the last but one proleg by a Hamilton syringe at a volume of 5 μL. After injection, the larvae were placed in Petri dishes on sterile filter paper. Bleeding larvae were excluded from the experiment. […]
The assay was performed similarly to the previous papers. , The hemolymph was diluted 5 times in apyrogenic water, and 2 μL of this dilution was added to 18 μL of buffer A (50 mM Tris–HCl pH 7.4, 150 mM NaCl, 5 mM CaCl2) in a 96-well plate. After 20 min of preincubation at room temperature, 180 μL of a 2 mM solution of 3,4-dihydroxy- L -phenylalanine (L-DOPA) in buffer B (50 mM Na2HPO4, 50 mM NaH2PO4; pH 6.5) was added, and then, the absorbance at 490 nm was measured immediately (time 0) at the indicated time-points. […]
All experiments were conducted three times independently, except for the DLS and ITC measurements, which were performed once and twice, respectively. […] For experiments concerning measurements of TNF, NO, cellular metabolic activity, TLRs activation, and LAL assay, the statistical significance of differences between the particular result and control was calculated using a two-way ANOVA with Tukey’s multiple comparison test as a posthoc test and shown in figures as asterisks *, **, or ***, indicating p < 0.05, p < 0.01, and p < 0.001, respectively. […]

[4] = system: FPR2; parameters: method as in number not given; conditions: ref number not given; cited from earlier work
[5] = system: Gram-positive bacteria; conditions: pore formation; ref number not given; cited from earlier work
Text: (§1) A good example of such a multifunctional and immunomodulatory bacteriocin is the peptide BacSp222, produced by an opportunistic canine pathogen, strain 222. BacSp222 is a 50 amino acid long linear peptide encoded on a plasmid and is produced without a leader sequence, retaining a formylated N-terminal methionine. Its amino acid sequence seems to be unique, but the general physicochemical properties of BacSp222 resemble features of a group of several previously described bacteriocins of, predominantly, different staphylococci: lacticins Q and Z, aureocins A53 and AurK411, capidermicin, and epid ...

[6] = system: mouse immune cells; conditions: in the presence of IFN-gamma; ref number not given; cited from earlier work
Text: as §1

[7] = system: pro-inflammatory cytokines; conditions: TNF, MCP-1, IL-1-alpha, IL-8; via TLR2/TLR6, MyD88, NF-κB; ref our recent studies; cited from earlier work
Text: as §1

For-MAGLLRFLLSKGRALYNWAKSHVGKVWEWLKSGATYEQIKEWIENALGWR [BacSp222]
oligomerization in solution [1]: has a tendency to oligomerize in solutions | effect of LPS on bactericidal potential of BacSp222 ([2]; 17-fold mass excess of LPS (1:17), all strains but one exception): completely inhibited the killing potential of BacSp222 | effect of LPS on bactericidal potential of BacSp222 ([2]; BacSp222:LPS 1:1 mass ratio, all LPS preparations, all four strains, preincubated 15 min 37 °C, peptide referred to as "bacteriocin"/"the peptide"): only marginally reduces the bactericidal potential of the peptide | PO activity after BacSp222 alone ([3]; 3 μM BacSp222 alone (printed "bacteriocin alone")): PO activity at a similar level as the injection of PBS buffer | inhibition of LPS-induced PO activation ([3]; 3 μM BacSp222 preincubated (30 min, 30 °C) and coinjected with 1 μg LPS O55:B5 (IEC), n = 3, printed "inhibited ... to about 50%"): about 50% | PO activity after BacSp222 alone ([3]; 6 μM BacSp222 alone): induced PO activity | activation of FPR2 [4]: cannot activate | bactericidal activity, Gram-positive bacteria [5]: kills a wide range of Gram-positive bacteria | induction of NO secretion [6]: capable of stimulating mouse immune cells to express an inducible nitric oxide synthase and, consequently, to secrete nitric oxide (NO) | induction of pro-inflammatory cytokines [7]: induces the synthesis of many pro-inflammatory cytokines
